In patent publication US11427553B2, “Dihydrooxadiazinones” (Bayer Aktiengesellschaft, priority 2017, dated 2022):

Experiments:
PA-1 cells = experiment: Assay 1 cell proliferation measurement, PA-1; type: cell-based; details: Homo sapiens, Ovarian teratocarcinoma, read-out: Anti-proliferation IC50 [nM] PA-1
HeLa cells [1] = experiment: Assay 1 cell proliferation measurement (CTG, 72 h), HeLa; type: cell-based, human; details: Homo sapiens, HeLa; Assay 1, 72 h, Cell Titer Glo; read-out: HeLa IC50 [nM] (Cervical cancer)
In short: (§1)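 CTG luminescence readout after 72 h compound exposure at 37 °C; 10-point 2.5-fold dilutions from 100 nM max final; DMSO 0.3% vehicle. IC50 from 4-parameter fit, normalised to 0 h plate (max inhibition) and DMSO (min inhibition).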

DK-MG cells = experiment: Assay 1 cell proliferation measurement, DK-MG; type: cell-based; details: Homo sapiens; Glioblastoma; read-out: Anti-proliferation IC50 [nM] DK-MG
Hs 578T cells = experiment: Assay 1 cell proliferation measurement, Hs 578T; type: cell-based; details: Homo sapiens, Breast, read-out: Anti-proliferation IC50 [nM] Hs 578T
SK-MEL-3 cells = experiment: Assay 1 cell proliferation measurement (CTG, 72 h), SK-MEL-3; type: cell-based, human; details: Homo sapiens, SK-MEL3; Assay 1, 72 h, Cell Titer Glo; read-out: SK-MEL-3 IC50 [nM] (melanoma)
In short: as §1

A-2058 cells = experiment: Assay 1 cell proliferation measurement, A-2058; type: cell-based; details: Homo sapiens, A2058; Melanoma; read-out: Anti-proliferation IC50 [nM] A-2058
IGR37 cells = experiment: Assay 1 cell proliferation measurement (CTG, 72 h), IGR37; type: cell-based; details: Homo sapiens, IGR-37, Cell Titer Glo, read-out: IGR37 IC50 [nM] (melanoma)
HeLa cells [2] = experiment: Assay 2 cell proliferation measurement, HeLa; type: cell-based; details: Homo sapiens, Cervical, read-out: Anti-proliferation IC50 [nM] HeLa
Procedure: (§2) Cell Proliferation Measurement
(§3) The antiproliferative activity of the compounds of the general formula (I) was examined in vitro in human cancer cells. For this purpose, 500 cells, including HeLa cells, A2058 cells, DU145 cells, HMCB cells, IGR37 cells, NCIH1734 cells, OSRC2 cells, or 750 cells, including CAL51 cells, COL0741 cells, DBTRG05MG cells, DKMG cells, G292CLONEA141B1 cells, GB1 cells, HEL cells, HEL9217 cells, JHUEM1 cells, L3.3 cells, LI7 cells, TE4 cells, or 1000 cells, including 8505C cells, HUT78 cells, NCIH1563 cells, NCIH2122 cells, NCIH2172 cells, RVH421 cells, SKMEL3 cells, or 1500 cells, including C32 cells, HS578T cells, JHOM1 cells, NCIH196 cells, OVKATE cells, were plated in 384-well plates with appropriate growth medium and incubated at 37° C. overnight. After 24 h, the cells on the test plate were treated with the compounds of the general formula (I) as and incubated at 37° C. for 72 h. The compounds were added to the cells by means of an HP D300 digital dispenser in a 10 (or more)-step dilution series. As control, the cells were treated with vehicle (DMSO at 0.3% final concentration). After 72 h, the cells were treated with 20 μl/well of 50% CTG solution in PBS (Promega Cell Titer Glo (catalogue #G755B and G756B)) and incubated at room temperature for 10 min, and luminescence was measured by means of a VICTOR V (Perkin Elmer), in order to determine cell viability at the end of treatment. The percentage effect on cell growth and the IC50 derived therefrom were determined for each test substance using the values from untreated wells (=percent viability). The IC50 values were calculated using a 4-parameter fit.

SKMEL3 cells = experiment: Assay 2 cell proliferation measurement, SKMEL3; type: cell-based; details: Homo sapiens, SK-MEL3, Melanoma, read-out: Anti-proliferation IC50 [nM] SKMEL3
Procedure: as §2, §3

C32 cells = experiment: Assay 2 cell proliferation measurement, C32; type: cell-based; details: Homo sapiens, Melanoma, read-out: Anti-proliferation IC50 [nM] C32
Procedure: as §2, §3

| SMILES | IC50 (PA-1 cells) | IC50 (HeLa cells [1]) | IC50 (DK-MG cells) | IC50 (Hs 578T cells) | IC50 (SK-MEL-3 cells) | IC50 (A-2058 cells) | IC50 (IGR37 cells) | IC50 (HeLa cells [2]) | IC50 (SKMEL3 cells) | IC50 (C32 cells) |
| --- | --- | --- | --- | --- | --- | --- | --- | --- | --- | --- |
| O=C1NN=C(c2ccc(-c3ccc(F)cc3)c(C(F)(F)F)c2)CO1 [Example 3, 5-[4′-Fluoro-2-(trifluoromethyl)biphenyl-4-yl]-3,6-dihydro-2H-1,3,4-oxadiazin-2-one] | 22 nM | 3 nM | 21 nM | 29 nM | 7 nM |  |  |  |  |  |
| O=C1NN=C(c2ccc(-c3ccc(Cl)cc3)c(C(F)(F)F)c2)CO1 [Example 31, 5-[4′-Chloro-2-(trifluoromethyl)biphenyl-4-yl]-3,6-dihydro-2H-1,3,4-oxadiazin-2-one] | 39 nM | 4 nM | 39 nM | > 100 nM | 11 nM | 51 nM | 14 nM |  |  |  |
| C[C@@H]1OC(=O)NN=C1c1ccc(-c2ccc(F)cc2)c(C(F)(F)F)c1 [Example 135, (6S)-5-[4′-Fluoro-2-(trifluoromethyl)biphenyl-4-yl]-6-methyl-3,6-dihydro-2H-1,3,4-oxadiazin-2-one] |  | 1 nM |  |  | 3 nM | 24 nM | 3 nM | 2 nM | 5 nM | 58 nM |
| O=C1NN=C(c2ccc(-c3cnn(C(F)F)c3)c(C(F)(F)F)c2)CO1 [Example 146, 5-{4-[1-(Difluoromethyl)-1H-pyrazol-4-yl]-3-(trifluoromethyl)phenyl}-3,6-dihydro-2H-1,3,4-oxadiazin-2-one] | 12 nM | 1 nM | 12 nM | 28 nM | 2 nM | 16 nM | 2 nM | 2 nM | 3 nM | 52 nM |
| C[C@@H]1OC(=O)NN=C1c1ccc(-n2ccc(C(F)(F)F)n2)c(C(F)(F)F)c1 [Example 265, (6S)-6-Methyl-5-{3-(trifluoromethyl)-4-[3-(trifluoromethyl)-1H-pyrazol-1-yl]phenyl}-3,6-dihydro-2H-1,3,4-oxadiazin-2-one] |  | 2 nM |  |  | 5 nM |  | 7 nM | 5 nM | 10 nM | 132 nM |
